Data published in PubChem BioAssay (NCI).
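Grown in 96-well plates, cells were treated for 48 hours with each compound at five concentrations. Insufficient inhibition: endpoint recorded as highest concentration tested. TGI: total growth inhibition.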

Experiments:
Test in all cases: growth of human tumour cells (NCI), 48 h
SF-268 CNS = system: SF-268 CNS
NCI-H226 lung = system: NCI-H226 lung
NCI-H460 lung = system: NCI-H460 lung
U251 CNS = system: U251 CNS
UACC-62 melanoma = system: UACC-62 melanoma
HOP-92 NSCLC = system: HOP-92 NSCLC
SK-MEL-28 melanoma = system: SK-MEL-28 melanoma
OVCAR-4 ovarian = system: OVCAR-4 ovarian
OVCAR-5 ovarian = system: OVCAR-5 ovarian
SF-539 CNS = system: SF-539 CNS
MCF7 breast = system: MCF7 breast
K-562 leukemia = system: K-562 leukemia
IGROV1 ovarian = system: IGROV1 ovarian
SNB-75 CNS = system: SNB-75 CNS
SNB-19 CNS = system: SNB-19 CNS
SF-295 CNS = system: SF-295 CNS
CCRF-CEM leukemia = system: CCRF-CEM leukemia
SK-OV-3 ovarian = system: SK-OV-3 ovarian
RXF 393 renal = system: RXF 393 renal
EKVX NSCLC = system: EKVX NSCLC

Row | Structure (SMILES) | TGI (SF-268 CNS) | TGI (NCI-H226 lung) | TGI (NCI-H460 lung) | TGI (U251 CNS) | TGI (UACC-62 melanoma) | TGI (HOP-92 NSCLC) | TGI (SK-MEL-28 melanoma) | TGI (OVCAR-4 ovarian) | TGI (OVCAR-5 ovarian) | TGI (SF-539 CNS) | TGI (MCF7 breast) | TGI (K-562 leukemia) | TGI (IGROV1 ovarian) | TGI (SNB-75 CNS) | TGI (SNB-19 CNS) | TGI (SF-295 CNS) | TGI (CCRF-CEM leukemia) | TGI (SK-OV-3 ovarian) | TGI (RXF 393 renal) | TGI (EKVX NSCLC)
1 | COc1cc2c(cc1OC)-c1cc3ccccc3c(=O)n1CC2 | > 100 µM | > 100 µM | 67.5 µM | 97.9 µM | 39 µM | 63 µM | 90.5 µM | > 100 µM | > 100 µM | 41.9 µM | > 100 µM | > 100 µM | 72.8 µM | 92 µM | > 100 µM | 62.1 µM | > 100 µM | 74.5 µM | 21.6 µM | > 100 µM
2 | CCOC(=O)/C(O)=C1\C(=O)N(C)C(=O)C1c1cccc(OC)c1 (stereo not given) | > 100 µM | > 100 µM | > 100 µM | > 100 µM | > 100 µM | > 100 µM | > 100 µM | > 100 µM | > 100 µM | > 100 µM | > 100 µM | > 100 µM | > 100 µM | > 100 µM | > 100 µM | > 100 µM | > 100 µM | > 100 µM | > 100 µM | > 100 µM
